These results are taken from patent publication US20230330060A1, “COMPOUNDS FOR TREATMENT OF HEART FAILURE” (Sulfateq B.V., priority 2020, published 2023).

pEC50: −log10 of the molar value.

The term pEC50 denotes the EC50 on a negative log10 scale, so that one unit is a factor of ten.

The test system of test [1] is H9C2 cardiomyocytes. As to the kind of experiment: Quantification of phenylephrine-induced EGFP synthesis as surrogate for cell size (hypertrophy). It counts as cell-based, rat. To be noted: for SUL EGFP Inhibition (%): 30 μM SUL compound, calculated as 100%-Emax; for Expression of EGFP induced by phenylephrine (FIG. 3): preincubation with 30 μM compound. On the procedure: (§1) Rat H9C2 cardiomyoblasts (ATCC CRL-1446) were maintained in DMEM medium containing 10% fetal bovine serum and 1% Penicillin-Streptomycin solution (Sigma-Aldrich) and passaged when the cultures reach a confluency of 70%. Prior to experiments, H9C2 myoblasts were differentiated to cardiomyocytes by serum reduction (to 1%) and stimulation with 20 nM retinoic acid for 5 days. Differentiated H9C2 cardiomyocytes were seeded at 0.6·10^5 cells/cm^2 for all experiments.
H9C2 cardiomyocytes (0.6·10^5 cells/cm2) were infected with CMV-copGPF (MOI 10) in culture medium without serum for 24 h. H9C2 cardiomyocytes were pre-incubated with 30 μM SUL compounds under standard culture conditions for 30 min and then stimulated with phenylephrine (dose range 2·10^−5 to 1·10^−11 M) for an additional period of 24 h. Thereafter H9C2 cardiomyocytes were lysed in 100 μl soft lysis buffer (25 mM Tris, 2 mM Dithiothreitol, 2 mM EDTA, 1% Triton X-100, pH 7.4). per well and fluorescence intensity of the obtained supernatant was recorded in a CLARIOStar Plus plate reader (BMG Labtech) equipped with a FITC filter set (excitation 488 nm with 10 nm bandwidth; emission 515 with a 20 nm bandwidth).
All experiments were performed in triplicate per condition and averaged. Data obtained from two individual experiments were used for evaluation in GraphPad Prism 8.0 (GraphPad Software Inc, Ca). Average H9C2 cardiomyocyte cell size was associated to average EGFP levels using linear regression. Phenylephrine-induced EGFP synthesis was normalized, using baseline levels as 0% and maximum EGFP recordings as 100%. All datasets were normalized to vehicle controls. 4 parameter non-linear regression was used to determine the efficacy of potency of phenylephrine to induce GFP synthesis. The efficacy of SUL compounds to inhibit phenylephrine-induced EGFP synthesis was calculated as 100%-Emax, wherein Emax is the maximal effect evoked by phenylephrine.

Test [2] has as its system H9C2 cardiomyocytes. In words: Protein synthesis by H9C2 cardiomyocytes after phenylephrine. It counts as cell-based. Particulars: Rattus norvegicus, FIG. 2D, read-out: EC50 for increase of protein synthesis.
Test [3] has as its system H9C2 cardiomyocytes. As to the kind of experiment: Determination of cell size (cell surface area) after phenylephrine. It counts as cell-based, rat. Particulars: 24 h. The protocol: as §1
H9C2 cardiomyocytes were serum starved for 24 h and thereafter exposed to different concentrations of phenylephrine (dose range 2·10^−5 to 1·10^−11 M) for an additional 24 h. Cells were washed in ice-cold PBS and fixed by 2% paraformaldehyde in PBS at room temperature for 10 min. Fixed cells were incubated with 5 μM Rhodamine-conjugated Phalloidin (ThermoFisher Scientific) and washed extensively with PBS. Fluorescent pictures were taken randomly with an Zeiss AxioObserver Z1 microscope and cell size was analyzed with CellProfiler software [McQuin, 2018].

Regarding `C[C@H]1CCC/C=C/[C@@H]2C[C@H](O)C[C@H]2[C@H](O)/C=C/C(=O)O1` [Brefeldin A, reference compound], the “Phenylephrine-induced increase in EGFP fluorescence (FIG. 2F)” value with H9C2 cardiomyocytes [1] (addition of protein synthesis inhibitor) is given as “inhibits the phenylephrine-induced increase in EGFP fluorescence”.
As to `CNC[C@H](O)c1cccc(O)c1` [Phenylephrine], the pEC50 with H9C2 cardiomyocytes [1] (Rattus norvegicus, H9C2 cardiomyocytes transformed with CMV-EGFP lentiviral particles, FIG. 2B, read-out: EC50 for increase of EGFP fluorescence) is 8.28; in the test with H9C2 cardiomyocytes [2], 9.26; in the test with H9C2 cardiomyocytes [3] (Rattus norvegicus, H9c2, phenylephrine 1·10^−11 to 2·10^−5 M, FIG. 2A, read-out: EC50 for increase of H9C2 cardiomyocyte cell surface area) it was 9.13. The “H9C2 cardiomyocyte cell surface area” value in the test on H9C2 cardiomyocytes [3] (2·10^−5 M phenylephrine, vehicle-treated control 791±263 μm^2) was determined as 3278±296 μm^2.
Take `Cc1c(C)c2c(c(C)c1O)CCC(C)(C(=O)O)O2` (stereo not shown) [SUL-11, 6-hydroxy-2,5,7,8-tetramethylchroman-2-carboxylic acid (Trolox), reference compound]: in the test on H9C2 cardiomyocytes [1], the “SUL EGFP Inhibition (%)” value is recorded as 54.05% and the “Expression of EGFP induced by phenylephrine (FIG. 3)” value (“Expression of EGFP induced” for short) is on record as “reduced the expression of EGFP”.
In the same order, the values of `Cc1c(C)c2c(c(C)c1O)CC[C@@](C)(C(=O)N[C@@H]1CCCNC1)O2` [SUL-13, (S)-6-hydroxy-2,5,7,8-tetramethyl-N-((R)-piperidin-3-yl)chromane-2-carboxamide] are 68.85% and “reduced the expression of EGFP”.
Consider `COC(=O)CNC(=O)C1(C)CCc2c(C)c(O)c(C)c(C)c2O1` (stereo not shown) [SUL-99, methyl [(6-hydroxy-2,5,7,8-tetramethyl-3,4-dihydro-2H-1-benzopyran-2-carbonyl)amino]acetate, reference compound], for which, in the test on H9C2 cardiomyocytes [1], the “SUL EGFP Inhibition (%)” value was 55.11% and the “Expression of EGFP induced” value is “reduced the expression of EGFP”.
In the same order, the values of `Cc1c(C)c2c(c(C)c1O)CC[C@@](C)(C(=O)N1CCN(CCO)CC1)O2` [SUL-138, (S)-(6-hydroxy-2,5,7,8-tetramethylchroman-2-yl)(4-(2-hydroxyethyl)piperazin-1-yl)methanone] are 63.18% and “reduced the expression of EGFP”.
With `Cc1c(C)c(O)c(CC[C@@](C)(O)C(=O)N2CCN(CCO)CC2)c(C)c1O` [SUL-138M2, 4-(2,5-dihydroxy-3,4,6-trimethylphenyl)-2-hydroxy-1-(4-(2-hydroxyethyl)piperazin-1-yl)-2-methylbutan-1-one], the “SUL EGFP Inhibition (%)” value in the test with H9C2 cardiomyocytes [1] was 43.92%.
As for `Cc1c(C)c2c(c(C)c1O)CC[C@@](C)(C(=O)N1CCNCC1)O2` [SUL-151, (S)-(6-hydroxy-2,5,7,8-tetramethylchroman-2-yl)(piperazin-1-yl)methanone], in the test on H9C2 cardiomyocytes [1], the “SUL EGFP Inhibition (%)” value is 56.8% and the “Expression of EGFP induced” value was “reduced the expression of EGFP”.
